# BindingDB's records for doi:10.1021/jm00081a005 (University of Wisconsin-Madison, 1992)
# Assay: Compound was tested for binding affinity towards cytosolic aminopeptidase
smiles,measurement,value
CC(=O)[C@@H](N)CC(C)C,Ki,> 600 µM
